{"source": "patent US20250345295A1", "about": "“LMK235 COMPOSITIONS AND METHODS” (UNM Rainforest Innovations, priority 2024, published 2025)", "key": {"[1]": {"system": "HDAC5 and pain related genes in TG", "assay": "RT-PCR of TG gene expression", "type": "in vivo, mouse", "method": "To confirm that the anti-allodynic mechanism provided by LMK235 was accompanied by changes in RNA of specific pain relate genes, TG expression of several genes was assessed in the TG of LMK235-treated and untreated FRICT-ION groups to naïve controls with RT-PCR (FIG. 12).\nPrimers were ordered from Bio-Rad Laboratories, Inc. (Hercules, CA). Samples were run by UNM Human Tissue Repository Core facility. 400 μg of total RNA was transcribed into cDNA using iScript cDNA synthesis kit (Catalog #1708890, BioRad Laboratories, Inc., Hercules, CA, USA). Relative analysis of HDAC5 by Sybr Green qRT-PCR was run in order to validate the results observed via RNAseq. All primers, housekeeping gene primers, and the amplicon context sequence were purchased pre-validated from Bio-Rad Laboratories, Inc. (PrimePCR SYBR Green Assay: HDAC5, Mouse, qMmuCID0021326; Bio-Rad Laboratories, Inc., Hercules, CA). All qRT-PCR amplification reactions were done in 20 μl volumes in triplicate using iTaq Universal SYBR Green Supermix (Catalog #1725122, Bio-Rad Laboratories, Inc., Hercules, CA) in 96-well plates and run on a LightCycler 96 qRT-PCR system (Roche, Germany). The Amplification program used for amplification was an initial activation step of 95° C. for two minutes followed by 40 cycles at 95° C. for five seconds and 60° C. for 30 seconds, and concluding with a melt curve of 65° C.-95° C. with five seconds/step. qRT-PCR was done on the HDAC5 gene target and two housekeeping genes within each of the treated and untreated controls and experimental conditions. qRT-PCR data were analyzed using the 2-ΔΔcT method (Livak K J, Schmittgen T D, Methods 2001 December;25(4):402-408). Briefly, the mean ΔcT of each differentially expressed gene target assayed for, in both the experimental conditions and the untreated controls was calculated by subtracting the mean cT from the mean cT of the housekeeping genes values for each sample type. ΔΔcT was then calculated by subtracting the experimental ΔcT group from the control Act group. Expression fold change was expressed as 2-ΔΔcT."}, "[2]": {"system": "small (<30 μm) TG neurons from FRICT-ION mice", "assay": "Whole-cell patch-clamp electrophysiology, TG neurons from FRICT-ION mice", "type": "cell-based, mouse", "conditions": "13 μM for one hour vs 0.1% DMSO", "method": "The excitability of TG neurons is directly linked to the pathophysiology of trigeminal neuropathic pain. In order to determine the effect of LMK235 on TG neurons from FRICT-ION mice, whole-cell patch-clamp electrophysiological recordings were made from small (<30 μm) TG neurons in the presence of LMK235 (13 μM) or vehicle (0.1% DMSO). TG neurons were obtained from FRICT-ION mice at three weeks post injury or naïve mice. The TG neurons were treated for one hour in vitro with either LMK235 or vehicle control prior to recording (FIG. 7).\nNeurons with a diameter of <30 μm were identified by infrared differential interference contrast (IR-DIC) imaging with a microscope connected to an Olympus digital camera. Current clamp recordings were performed using a Molecular Devices Multiclamp 700B (Scientifica, UK). Signals were filtered at 5 KHz, acquired at 50 KHz using a Molecular Devices 1550B converter (Scientifica, UK) and recorded using Clampex 11 software (Molecular Devices, Scientifica, UK). Electrodes were pulled with a Zeitz puller (Werner Zeitz, Martinsreid, Germany) from borosilicate thick glass (GC150F, Sutter Instruments). Electrode resistance was 5-8 MΩ. Bridge balance was applied to all recordings. Intracellular solution contained (in mM) 125 K-gluconate, 6 KCl, 10 HEPES, 0.1 EGTA, 2 Mg-ATP, pH 7.3 with KOH, and osmolarity of 290-310 mOsm. Artificial cerebrospinal fluid (aCSF) contained (in mM) 113 NaCl, 3 KCl, 25 NaHCO3, 1 NaH2PO4, 2 CaCl2), 2 MgCl2, and 11-glucose. For whole-cell current clamp recordings, to evaluate the basic input-output action potential frequency response to hyperpolarization and depolarization, DC current was injected from 0 pA to +200 pA in 10-pA increments for a duration of 500 milliseconds at the cell's intrinsic resting membrane potential. Data acquisition was sampled at 20 kHz and filtered at 2.4 kHz. Recordings with a series resistance greater than 20 MΩ were discarded, and series resistance was compensated to 70%. In response to a −100 pA hyperpolarizing pulse with 500 millisecond duration, voltage sag amplitude was measured. Sag ratio was calculated using the following equation as described previously (Fan et al., Front Cell Neurosci 2016 Mar. 24; 10:74):\nwhere Vpeak is the maximum voltage deflection and Vss is the steady state voltage at the end of the hyperpolarizing pulse.\nMale mice were euthanized three weeks after inducing the FRICT-ION model. The TG were dissected, minced, and dissociated in an enzymatic combination containing sterile, calcium-free, and magnesium-free HBSS (Cat #14170112, Gibco), papain suspension (32.7 U/mgP, Cat #LS003126; Worthington, Lakewood, NJ), L-Cysteine (Cat #C7352-25g, Sigma), and saturated bicarbonate (Cat #S5761-500g, Sigma) solution. […]"}, "HDAC 5": {"biological_target": "HDAC 5 (Homo sapiens, UniProt Q9UQL6)", "sequence (Q9UQL6 whole entry, species assumed)": "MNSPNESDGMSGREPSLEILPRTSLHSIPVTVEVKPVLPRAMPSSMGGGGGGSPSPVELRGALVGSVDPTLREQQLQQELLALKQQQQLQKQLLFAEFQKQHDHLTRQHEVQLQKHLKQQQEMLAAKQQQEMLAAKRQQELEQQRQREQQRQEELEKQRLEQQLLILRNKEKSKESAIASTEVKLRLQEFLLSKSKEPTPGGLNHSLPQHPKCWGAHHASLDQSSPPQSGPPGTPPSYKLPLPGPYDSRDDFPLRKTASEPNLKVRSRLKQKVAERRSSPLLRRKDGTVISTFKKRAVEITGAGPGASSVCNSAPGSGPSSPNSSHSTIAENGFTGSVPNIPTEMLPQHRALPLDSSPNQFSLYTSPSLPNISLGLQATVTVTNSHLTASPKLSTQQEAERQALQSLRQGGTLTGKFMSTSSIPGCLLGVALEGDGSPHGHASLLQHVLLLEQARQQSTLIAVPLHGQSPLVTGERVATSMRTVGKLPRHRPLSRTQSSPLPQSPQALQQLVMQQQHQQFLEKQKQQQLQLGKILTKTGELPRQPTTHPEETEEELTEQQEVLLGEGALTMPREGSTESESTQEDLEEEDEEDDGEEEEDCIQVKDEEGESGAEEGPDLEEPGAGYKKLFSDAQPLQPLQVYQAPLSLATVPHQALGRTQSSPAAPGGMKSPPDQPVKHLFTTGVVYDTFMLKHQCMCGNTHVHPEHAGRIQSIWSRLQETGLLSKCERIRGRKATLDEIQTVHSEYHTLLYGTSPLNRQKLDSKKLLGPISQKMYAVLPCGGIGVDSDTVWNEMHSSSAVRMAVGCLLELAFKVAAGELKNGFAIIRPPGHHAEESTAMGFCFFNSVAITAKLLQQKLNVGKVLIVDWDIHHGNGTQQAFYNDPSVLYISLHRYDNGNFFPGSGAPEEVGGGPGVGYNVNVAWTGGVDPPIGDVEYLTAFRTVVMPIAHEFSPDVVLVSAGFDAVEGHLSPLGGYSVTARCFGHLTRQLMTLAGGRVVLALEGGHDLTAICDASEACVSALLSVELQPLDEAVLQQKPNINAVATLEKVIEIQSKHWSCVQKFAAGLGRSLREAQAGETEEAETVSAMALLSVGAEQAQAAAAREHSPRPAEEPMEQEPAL", "conditions": "cited from earlier work"}, "[3]": {"conditions": "LMK235-treated FRICT-ION mice, week 10"}}, "note": "Entries after “also recorded” stand apart in the source; their conditions may differ.", "data": [{"molecule": "Cc1cc(C)cc(C(=O)NOCCCCCC(=O)NO)c1", "note": "[LMK235, N-[[6-(Hydroxyamino)-6-oxohexyl]oxy]-3,5-dimethyl-benzamide]", "values": [{"measurement": "HDAC5 expression", "setting": "[1]; LMK235-treated FRICT-ION mice", "value": "reduced"}, {"measurement": "Hist1h2bc change", "setting": "[1]; LMK235-treated FRICT-ION mice", "value": 1.4, "unit": "fold"}, {"measurement": "Hist2h2aa1 change", "setting": "[1]; LMK235-treated FRICT-ION mice", "value": 1.6, "unit": "fold"}, {"measurement": "CCKBR RNA", "setting": "[1]; [3]", "value": "normalized"}, {"measurement": "GNAI2 RNA", "setting": "[1]; [3]", "value": "partially restored"}, {"measurement": "IFIT1 RNA", "setting": "[1]; [3]", "value": "partially restored"}, {"measurement": "NTS RNA", "setting": "[1]; [3]", "value": "normalized"}, {"measurement": "SCFN9 RNA", "setting": "[1]; [3]", "value": "normalized"}, {"measurement": "HDAC5 expression", "setting": "[1]; LMK235-treated naïve controls", "value": "reduced"}, {"measurement": "changes in HDAC10 gene", "setting": "[1]; LMK235-treated naïve mice", "value": "not observed"}, {"measurement": "changes in HDAC11 gene", "setting": "[1]; LMK235-treated naïve mice", "value": "not observed"}, {"measurement": "distribution of high (>200 pA) vs low (<200 pA) threshold TG neurons", "setting": "[2]", "value": "higher proportion of high threshold (>200 pA) neurons"}, {"measurement": "resting membrane potential (RMP)", "setting": "[2]", "value": "not significantly altered; also recorded: no significant differences"}, {"measurement": "rheobase", "setting": "[2]", "value": "not significantly altered; also recorded: no significant differences"}, {"measurement": "sag ratio", "setting": "[2]", "value": "significantly lower; also recorded: reduced"}, {"measurement": "IC50", "setting": "HDAC 5", "value": 4, "unit": "nM"}]}]}
